Patent US10702556B2, “Compositions and methods for inducing angiogenesis” (MINOVIA THERAPEUTICS LTD., priority 2012, dated 2020)

System: mouse aortic rings
Experiment: Mouse aortic ring sprouting (ex-vivo angiogenesis)
Type: cell-based
Description: Thoracic aorta were removed from female C57/BL mice and cut into 0.5 mm rings. Aortic rings were incubated in serum-free medium and either left untreated or treated with 0.5 μM Rotenone for 4 hours. To assess mitochondria effect on sprouting of aortic rings, half of the non-treated rings were washed and incubated with 25 μg of C57/BL mouse placental mitochondria in 2 ml serum-free medium. After 24 hours the rings were embedded in rat tail collagen, one ring per well in a 96 wells plate. After 8 days in culture the level of sprouting was evaluated by counting the number of vessels per ring.
The effect of VEGF, mitochondria and mitochondria+VEGF on sprouting of aortic rings in-vitro was examined Mouse aortic rings were prepared as described in example 7 and were either left un-treated (NT), treated with 25 μg mouse placental mitochondria in 2 ml OptiMem medium for 24 h (Mito), incubated in OptiMem medium containing 2.5% FBS and 30 ng/ml mouse VEGF for 48 h (VEGF) or treated with both mitochondria and VEGF (VEGF+Mito). The number of new blood vessels sprouting from the aortic rings was counted on day 8.
Mouse aortic rings were prepared as described in example 7 and were either left un-treated or treated with increasing amounts (2-350 μg) of mouse placental mitochondria in 2 ml OptiMem medium for 24 h. The number of new blood vessels sprouting from the aortic rings was counted on day 7.
The effect of mitochondria on the number of blood vessels was evaluated in a mouse aortic ring model. Mouse aortic rings were prepared as described in example 7 and were either left un-treated (Control), treated for 24 h with 25 μg of mouse placental mitochondria (Mito), treated with mitochondria that were inhibited by 2 μM of mitochondria complex I inhibitor Rotenone or treated with mitochondria that were inhibited with 5 μM of the ATP Synthase inhibitor Oligomycin for 24 h. The number of new blood vessels sprouting from the aortic rings was counted on day 8.

| Compound | number of vessels per ring (sprouting) (0.5 μM Rotenone for 4 hours, 8 days in culture) | number of new blood vessels sprouting from the aortic rings, comparison between treated groups (25 μg mitochondria 24 h, 30 ng/ml mouse VEGF 48 h, or both, day 8) |
| --- | --- | --- |
| C=C(C)[C@H]1Cc2c(ccc3c2O[C@@H]2COc4cc(OC)c(OC)cc4[C@@H]2C3=O)O1 [Rotenone] | blocked the sprouting almost completely | – |
| VEGF | – | no significant difference |
